Experimental data: patent US9228999B2, “Method for screening active agents that stimulate the expression of CERT to improve the skin's barrier function” (CHANEL PARFUMS BEAUTE, priority 2009, dated 2016)

Tested on: CERT mRNA
Assay: Test for screening active agents by real-time RT-PCR: expression of CERT mRNA in keratinocytes
Format: cell-based
Conditions: normal human keratinocytes (neonatal foreskin), 24 hours incubation, concentration 0.0005%, number of times of increase vs untreated (1.0), normalized to RPLPO
Experimental: The effect of two active agents on the expression of the mRNA of CERT was evaluated in keratinocytes. Keratinocytes derived from neonatal foreskins (Cascade Biologics/Invitrogen, Portland, Oreg., USA) are inoculated in 6-well plates and cultured in keratinocyte growth culture medium (Epilife, Invitrogen), i.e. a modified culture medium supplemented with EDGS. After culturing for 24 hours in an incubator at 37° C., the 70%-80% confluent cells are washed with PBS buffer (Invitrogen) and incubated with basic medium (Epilife, Invitrogen) containing the active agent to be tested, for 24 hours and in triplicate, at increasing concentrations. After studying the cytotoxicity of the active agent, its activity is evaluated. To quantify the expression of CERT messenger RNA in a treated sample relative to an untreated sample, first the RNA is isolated using the RNeasy reagent kit (Qiagen, CA, USA) and then quantified using the QuantIt kit (Invitrogen). Reverse transcription is performed using the gene Amp RNA PCR kit (Applied Biosystems) according to the manufacturer's recommendations. The real-time PCR measurement is performed using the iCYCLER IQ machine (Bio-Rad, CA, USA) with Taqman probes. […] The relative quantification of the expression of the target gene is performed using the Pfaffl mathematical model (Pfaffl, MW, Nucleic Acids Res. 29(9), p. […], 2001). […]

Compound | Stimulation of CERT mRNA
O=C(O)CCCC[C@@H]1CCSS1 (racemic) [Lipoic acid] | 2.0
Oc1ccc(C=Cc2cc(O)cc(O)c2)cc1 [Resveratrol] | 2.4
